From patent publication US9187496B2 (priority 2009, dated 2015)
pEC50: −log10 of the molar value. Read-outs that look alike come from different tables or passages of the source.

Tests used:
[1] = test system: Huh-7 cells containing HCV Con1 subgenomic replicon (GS4.1 cells); test: HCV replicon assay (NS5A ELISA); type: cell-based
Procedure: General Procedure: Huh-7 cells containing HCV Con1 subgenomic replicon (GS4.1 cells) were grown in Dulbecco's Modified Eagle Medium (DMEM) supplemented with 10% fetal bovine serum (FBS), 2 mM L-glutamine, 110 mg/L sodium pyruvate, 1× non-essential amino acids, 100 U/mL penicillin-streptomycin, and 0.5 mg/mL G418 (Invitrogen). For dose-response testing, the cells were seeded in 96-well plates at 7.5×10^3 cells/well in a volume of 50 μL, and incubated at 37° C./5% CO2. Three hours after plating, 50 μL of ten 2-fold serial dilutions of compounds (highest concentration, 75 μM) were added, and cell cultures were incubated at 37° C./5% CO2 in the presence of 0.5% DMSO. Alternatively, compounds were tested at a single concentration of 15 μM. In all cases, Huh-7 cells lacking the HCV replicon served as negative control. The cells were incubated in the presence of compounds for 72 hrs after which they were monitored for expression of the NS5A protein by enzyme-linked immunosorbent assay (ELISA). For this, the plates were then fixed for 1 min with acetone/methanol (1:1, v/v), washed twice with phosphate-buffered saline (PBS), 0.1% Tween 20, blocked for 1 hr at room temperature with TNE buffer containing 10% FBS and then incubated for 2 hr at 37° C. with the anti-NS5A mouse monoclonal antibody A-236 (ViroGen) diluted in the same buffer. After washing three times with PBS, 0.1% Tween 20, the cells were incubated 1 hr at 37° C. with anti-mouse immunoglobulin G-peroxidase conjugate in TNE, 10% FBS. After washing as described above, the reaction was developed with O-phenylenediamine (Zymed). The reaction was stopped after 30 min with 2 N H2SO4, and absorbance was read at 492 nm using Sunrise Tecan spectrophotometer. EC50 values were determined from the % inhibition versus concentration data using a sigmoidal non-linear regression analysis based on four parameters with Tecan Magellan software.

[2] = test system: GS4.1 cells; test: Cytotoxicity evaluation in GS4.1 cells (Cell Titer 96 AQueous One); type: cell-based, human; details: cellular viability
Procedure: For cytotoxicity evaluation, GS4.1 cells were treated with compounds as described above and cellular viability was monitored using the Cell Titer 96 AQueous One Solution Cell Proliferation Assay (Promega). CC50 values were determined from the % cytotoxicity versus concentration data with Tecan Magellan software as described above.

[3] = Hepatitis C virus, Huh-7, GS4.1 cells, 72 hrs, NS5A ELISA, read-out: EC50

SMILES	pEC50 [1, 3]	CC50 [2] [µM]	pEC50 ([1]; GS4.1 cells, 72 hrs, NS5A ELISA, read-out: EC50)	pEC50 ([1]; Hepatitis C virus, Huh-7, 72 h)
COC(=O)N[C@H](C(=O)N1CCCC1c1ncc(-c2ccc(-c3csc4c(-c5ccccc5)csc34)cc2)[nH]1)C(C)C (stereo partly drawn) [A103]	8.00 to 9.00	10 to 75	–	–
COC(=O)N[C@@H](C(=O)N1CCC[C@H]1C(=O)Nc1ccc(C#Cc2cn3cc(NC(=O)[C@@H]4CCCN4C(=O)[C@H](NC(=O)OC)c4ccccc4)nc3s2)cc1)c1ccccc1 [A80]	–	> 75	> 9.00	–
CCOC(=O)N[C@@H](C(=O)N1CCC[C@H]1C(=O)Nc1cn2cc(-c3ccc(-c4cnc([C@@H]5CCCN5C(=O)[C@@H](NC(=O)OC)C(C)C)[nH]4)cc3)sc2n1)c1ccccc1 [Compound A55, (S,S,S,R)-[1-(2-{5-[4-(6-{[1-(2-ethoxycarbonylamino-2-phenylacetyl)-pyrrolidine-2-carbonyl]-amino}imidazo[2,1-b]thiazol-2-yl)-phenyl]-1H-imidazol-2-yl}pyrrolidine-1-carbonyl)-2-methyl-propyl]-carbamic acid methyl ester]	> 9.00	10 to 75	–	–
COC(=O)N[C@H](C(=O)N1CCCC1c1ncc(-c2ccc(-c3csc4c(-c5cnc(C6CCCN6C(=O)OCc6ccccc6)[nH]5)csc34)cc2)[nH]1)C(C)C (stereo partly drawn) [A49]	> 9.00	> 75	–	–
CC(C)(C)OC(=O)N1CCCC1c1nc(-c2ccc(-c3cn4cc(-c5ccc(-c6cnc([C@@H]7CCCN7C(=O)OC(C)(C)C)[nH]6)cc5)sc4n3)cc2)c[nH]1 (stereo partly drawn) [A157]	7.00 to 8.00	> 75	–	–
COC(=O)N[C@H](C(=O)N1CCCC1c1ncc(-c2ccc(-c3csc4c(-c5cnc(C6CCCN6C(=O)[C@H](NC(=O)OC)C(C)C)[nH]5)csc34)cc2)[nH]1)C(C)C (stereo partly drawn) [A77]	> 9.00	> 75	–	–
CC(C)(C)OC(=O)Nc1ccc(-c2cn3cc(NC(=O)[C@@H]4CCCN4C(=O)[C@H](NC(=O)OC(C)(C)C)c4ccccc4)nc3s2)cc1 [A29]	< 7.00	10 to 75	–	–
COC(=O)N[C@H](C(=O)N1CCCC1c1nc(-c2ccc(-c3cc4sc(-c5ccc(-c6cnc([C@@H]7CCCN7C(=O)[C@@H](NC(=O)OC)C(C)C)[nH]6)cc5)cc4s3)cc2)c[nH]1)C(C)C (stereo partly drawn) [A159]	> 9.00	> 75	–	–
COC(=O)N[C@H](C(=O)N1CCCC1c1ncc(-c2ccc(-c3csc4cc(C(=O)OC)[nH]c34)cc2)[nH]1)C(C)C (stereo partly drawn) [A164]	7.00 to 8.00	10 to 75	–	–
COC(=O)N[C@H](C(=O)N1CCC[C@H]1C(=O)Nc1cn2cc(-c3ccc(-c4cnc([C@@H]5CCCN5C(=O)[C@@H](NC(=O)OC)C(C)C)[nH]4)cc3)sc2n1)C(C)C [Compound A2, (S,S,S,S)-(1-{2-[2-(4-{2-[1-(2-methoxycarbonylamino-3-methyl-butyryl)-pyrrolidin-2-yl]-3H-imidazol-4-yl}-phenyl)-imidazo[2,1-b]thiazol-6-ylcarbamoyl]-pyrrolidine-1-carbonyl}-2-methyl-propyl)-carbamic acid methyl ester]	8.00 to 9.00	10 to 75	–	–
COC(=O)N[C@H](C(=O)N1CCCC1c1ncc(-c2cn3cc(-c4ccc(-c5cnc([C@@H]6CCCN6C(=O)[C@@H](NC(=O)OC)C(C)C)[nH]5)cc4)nc3s2)[nH]1)C(C)C (stereo partly drawn) [A7]	> 9.00	> 75	–	–
COC(=O)N[C@H](C(=O)N1CCC[C@H]1c1ncc(-c2ccc(-c3cn4cc(NC(=O)[C@@H]5CCCN5C(=O)[C@H](NC(=O)OC)c5ccccc5)nc4s3)cc2)[nH]1)C(C)C [Compound A30, (S,S,S,R)-[1-(2-{5-[4-(6-{[1-(2-methoxycarbonylamino-2-phenyl-acetyl)-pyrrolidin-2-carbonyl]-amino}-imidazo[2,1-b]thiazol-2-yl)-phenyl]-1H-imidazol-2-yl}-pyrrolidine-1-carbonyl)-2-methyl-propyl]-carbamic acid methyl ester]	> 9.00	> 75	–	–
COC(=O)N[C@H](C(=O)N1CCC[C@H]1c1ncc(-c2ccc(-c3cn4cc(NC(=O)[C@@H]5CCCN5C(=O)[C@H](NC(=O)OC(C)C)c5ccccc5)nc4s3)cc2)[nH]1)C(C)C [A56]	> 9.00	> 75	–	–
COC(=O)N[C@H](C(=O)N1CCCC1c1ncc(-c2cc3sc(-c4ncc(-c5c[nH]c([C@@H]6CCCN6C(=O)[C@@H](NC(=O)OC)C(C)C)n5)s4)cc3s2)[nH]1)C(C)C (stereo partly drawn) [A130]	> 9.00	> 75	–	–
COC(=O)N[C@H](C(=O)N1CCCC1c1nc(-c2ccc(-c3sc4cc(-c5ccc(-c6cnc([C@@H]7CCCN7C(=O)[C@@H](NC(=O)OC)C(C)C)[nH]6)cc5)sc4c3-c3ccc(-c4cnc(C5CCCN5C(=O)[C@@H](NC(=O)OC)C(C)C)[nH]4)cc3)cc2)c[nH]1)C(C)C (stereo partly drawn) [A105]	–	10 to 75	–	7.00 to 8.00
CC(C)(C)OC(=O)N1CCCC1c1ncc(-c2ccc(-c3cn4ccsc4n3)cc2)[nH]1 (stereo not drawn) [A167]	< 7.00	–	–	–
COC(=O)N[C@H](C(=O)N1CCCC1c1ncc(-c2csc3c(-c4ccc(-c5cnc(C6CCCN6C(=O)[C@@H](NC(=O)OC)C(C)C)[nH]5)cc4)csc23)[nH]1)c1ccccc1 (stereo partly drawn) [A78]	> 9.00	> 75	–	–
COC(=O)N[C@H](C(=O)N1CCC[C@H]1c1ncc(-c2csc3c(-c4cnc([C@@H]5CCCN5C(=O)[C@@H](NC(=O)OC)C(C)C)[nH]4)csc23)[nH]1)C(C)C [Compound A82, ((S)-1-{(S)-2-[5-(6-{2-[(S)-1-((S)-2-methoxycarbonylamino-3-methyl-butyryl)-pyrrolidin-2-yl]-3H-imidazol-4-yl}-thieno[3,2-b]thiophen-3-yl)-1H-imidazol-2-yl]-pyrrolidine-1-carbonyl}-2-methyl-propyl)-carbamic acid methyl ester]	> 9.00	10 to 75	–	–
CC(C)(C)OC(=O)N[C@@H](C(=O)N1CCC[C@H]1C(=O)Nc1cn2cc(-c3ccccc3)sc2n1)c1ccccc1 [A27]	7.00 to 8.00	> 75	–	–
COC(=O)N[C@H](C(=O)N1CCCC1c1nc(-c2ccc(-c3c(C(=O)OC)[nH]c4c(-c5ccc(-c6cnc(C7CCCN7C(=O)[C@@H](NC(=O)OC)C(C)C)[nH]6)cc5)csc34)cc2)c[nH]1)C(C)C (stereo partly drawn) [Compound A163]	> 9.00	> 75	–	–
COC(=O)N[C@H](C(=O)N1CCC[C@H]1c1ncc(-c2ccc(-c3cn4cc(NC(=O)CNC(=O)[C@H](NC(=O)OC(C)(C)C)c5ccccc5)nc4s3)cc2)[nH]1)C(C)C [A148]	8.00 to 9.00	> 75	–	–
COC(=O)N[C@H](C(=O)N1CCCC1c1ncc(-c2ccc(-c3cn4ccsc4n3)cc2)[nH]1)C(C)C (stereo partly drawn) [A160]	7.00 to 8.00	> 75	–	–
CC(C)(C)OC(=O)N1CCCC1c1ncc(-c2cn3cc(-c4ccc(Cl)cc4)sc3n2)[nH]1 (stereo not drawn) [A152]	< 7.00	10 to 75	–	–
COC(=O)N[C@H](C(=O)N1CCC[C@H]1c1cc(-c2ccc(-c3cn4cc(NC(=O)[C@@H]5CCCN5C(=O)[C@H](NC(=O)OC(C)C)c5ccccc5)nc4s3)cc2)[nH]n1)C(C)C [A156]	> 9.00	> 75	–	–
COC(=O)N[C@H](C(=O)N1CCC[C@H]1c1ncc(-c2ccc(-c3cn4cc(NC(=O)C5CCCN5C(=O)CNC(=O)OC(C)(C)C)nc4s3)cc2)[nH]1)C(C)C (stereo partly drawn) [A31]	7.00 to 8.00	> 75	–	–
COC(=O)N[C@H](C(=O)N1CCCC1c1ncc(-c2ccc(-c3csc4c(-c5cnc(C6CCCN6C(=O)[C@@H](NC(=O)OC(C)(C)C)C(C)C)[nH]5)csc34)cc2)[nH]1)C(C)C (stereo partly drawn) [A76]	> 9.00	> 75	–	–
